Data as given in patent US20260317340A1, “COMPOUNDS, COMPOSITIONS, AND METHODS OF TREATING DISORDERS” (Chengdu Anticancer Bioscience, Ltd., priority 2023, published 2026).
Where two headings read alike, the source gives them in different places.

Key:
[1] = tested on: RPE-Neo or RPE-MYC or RPE-MYC expressing an EGFP-Histone 2B fusion protein; assay: Phenotypic screening assay: arrest in mitosis, change in DNA content (polyploidy), cell death; assay type: cell-based; conditions: 20 nM to 20 μM, 24, 48 or 72 hours
Experimental: (§1) Human cancer cell lines were obtained from ATCC and cultured in DMEM (Gibco, Cleveland, TN, USA) supplemented with 5% fetal bovine serum (Gibco), penicillin (100 U/mL)-streptomycin (100 μg/mL) (Gibco, Cat. No. 15140-122), 2 mM L-glutamine (Gibco, 200 mM solution, Cat. No. 25030081), and 1 mM sodium pyruvate (Gibco, 100 mM solution, Cat. No. 11360070) at 37° C. in a humidified incubator that was maintained at 5% CO2.
Screening was conducted as described before (Li et al. 2019). Briefly, RPE-Neo or RPE-MYC or RPE-MYC expressing an EGFP-Histone 2B fusion protein were passaged as batches of 96-well plates, 18-24 hours before exposure to the chemical compounds of the present disclosure at concentrations from 20 nM to 20 μM. At 24, 48 or 72 hours after initiation of treatment, cells were analyzed for either an arrest in mitosis or a change in DNA content by GE IN-Cell Analyzer 2000. MTT assays of cellular proliferation were performed as previously described (Li et al. 2019).
(§2) As set forth in table 2 below, an values of greater than or equal to 1 nM and less than or equal to 1.0 μM is marked “A”; a value greater than 1.00 μM and less than or equal to 10.0 μM is marked “B”; a value greater than 10.0 μM and less than or equal to 30.0 μM is marked “C”; and a value greater than 30.0 μM and less than 1000 μM is marked “D.”

RPE-Neo or RPE-MYC cells = assay: MTT assay of cellular proliferation (proliferative arrest); assay type: cell-based; conditions: read-out: Min. Effective conc. for Proliferative arrest (>50%)
Experimental: as §1
Screening was conducted as described before (Li et al. 2019). Briefly, RPE-Neo or RPE-MYC or RPE-MYC expressing an EGFP-Histone 2B fusion protein were passaged as batches of 96-well plates, 18-24 hours before exposure to the chemical compounds of the present disclosure at concentrations from 20 nM to 20 μM. At 24, 48 or 72 hours after initiation of treatment, cells were analyzed for either an arrest in mitosis or a change in DNA content by GE IN-Cell Analyzer 2000. MTT assays of cellular proliferation were performed as previously described (Li et al. 2019). […]
as §2

[2] = read-out: Min. Effective conc. for Along with Cell Death
[3] = ≥5%, read-out: Min. Effective conc. for Mitotic Arrest (≥5%)
[4] = ≥5%, read-out: Min. Effective conc. for Polyploidy (≥5%)

Measured: minimal effective concentration

Cc1cnc(C2=Cc3ccc(-c4cnn(C)c4)cc3N(Cc3ccc(C)c(F)c3)C(=O)C2)o1 [Compound 20, 1-(3-fluoro-4-methylbenzyl)-8-(1-methyl-1H-pyrazol-4-yl)-4-(5-methyloxazol-2-yl)-1,3-dihydro-2H-benzo[b]azepin-2-one]
0.001 to 1 µM: [1]; [2] | [1]; [3] | [1]; [4] | RPE-Neo or RPE-MYC cells

Cc1cnc(C2=Cc3ccc(-c4cnn(C5CC5)c4)cc3N(Cc3ccc(C)c(F)c3)C(=O)C2)o1 [Compound 21, 8-(1-Cyclopropyl-1H-pyrazol-4-yl)-1-(3-fluoro-4-methylbenzyl)-4-(5-methyloxazol-2-yl)-1,3-dihydro-2H-benzo[b]azepin-2-one]
0.001 to 1 µM: [1]; [2] | [1]; [3] | [1]; [4] | RPE-Neo or RPE-MYC cells

Cc1cnc(C2=Cc3ccc(-c4cn[nH]c4)cc3N(Cc3ccc(C)c(F)c3)C(=O)C2)o1 [Compound 22, 1-(3-fluoro-4-methylbenzyl)-4-(5-methyloxazol-2-yl)-8-(1H-pyrazol-4-yl)-1,3-dihydro-2H-benzo[b]azepin-2-one]
0.001 to 1 µM: [1]; [2] | [1]; [3] | [1]; [4] | RPE-Neo or RPE-MYC cells

Cc1cnc(C2=Cc3ccc(-c4cccnc4)cc3N(Cc3ccc(C)c(F)c3)C(=O)C2)o1 [Compound 23, 1-(3-fluoro-4-methylbenzyl)-4-(5-methyloxazol-2-yl)-8-(pyridin-3-yl)-1,3-dihydro-2H-benzo[b]azepin-2-one]
0.001 to 1 µM: [1]; [2] | [1]; [3] | [1]; [4] | RPE-Neo or RPE-MYC cells

COc1ccc(CN2C(=O)CC(c3ncc(C)o3)=Cc3ccccc32)cc1 [Compound 24, 1-(4-methoxybenzyl)-4-(5-methyloxazol-2-yl)-1,3-dihydro-2H-benzo[b]azepin-2-one]
0.001 to 1 µM: [1]; [2] | [1]; [3] | [1]; [4] | RPE-Neo or RPE-MYC cells

COc1ccc(CN2C(=O)CC(c3ncc(C)o3)=Cc3ccc(Br)cc32)cc1 [Compound 25, 8-bromo-1-(4-methoxybenzyl)-4-(5-methyloxazol-2-yl)-1,3-dihydro-2H-benzo[b]azepin-2-one]
0.001 to 1 µM: [1]; [2] | [1]; [3] | [1]; [4] | RPE-Neo or RPE-MYC cells

COc1ccc(CN2C(=O)CC(c3ncc(C)o3)=Cc3ccc(N)cc32)cc1 [Compound 26, 8-amino-1-(4-methoxybenzyl)-4-(5-methyloxazol-2-yl)-1,3-dihydro-2H-benzo[b]azepin-2-one]
0.001 to 1 µM: [1]; [2] | [1]; [3] | [1]; [4] | RPE-Neo or RPE-MYC cells

COc1ccc(CN2C(=O)CC(c3ncc(C)o3)=Cc3ccc(O)cc32)cc1 [Compound 27, 8-hydroxy-1-(4-methoxybenzyl)-4-(5-methyloxazol-2-yl)-1,3-dihydro-2H-benzo[b]azepin-2-one]
0.001 to 1 µM: [1]; [2] | [1]; [3] | [1]; [4] | RPE-Neo or RPE-MYC cells

COc1ccc(CN2C(=O)CC(c3ncc(C)o3)=Cc3ccc(-c4ccsc4)cc32)cc1 [Compound 28, 1-(4-methoxybenzyl)-4-(5-methyloxazol-2-yl)-8-(thiophen-3-yl)-1,3-dihydro-2H-benzo[b]azepin-2-one]
0.001 to 1 µM: [1]; [2] | [1]; [3] | [1]; [4] | RPE-Neo or RPE-MYC cells

COc1ccc(CN2C(=O)CC(c3ncc(C)o3)=Cc3ccc(-c4ccoc4)cc32)cc1 [Compound 29, 8-(furan-3-yl)-1-(4-methoxybenzyl)-4-(5-methyloxazol-2-yl)-1,3-dihydro-2H-benzo[b]azepin-2-one]
0.001 to 1 µM: [1]; [2] | [1]; [3] | [1]; [4] | RPE-Neo or RPE-MYC cells

COc1ccc(CN2C(=O)CC(c3ncc(C)o3)=Cc3ccc(-c4cnn(C)c4)cc32)cc1 [Compound 30, 1-(4-methoxybenzyl)-8-(1-methyl-1H-pyrazol-4-yl)-4-(5-methyloxazol-2-yl)-1,3-dihydro-2H-benzo[b]azepin-2-one]
0.001 to 1 µM: [1]; [2] | [1]; [3] | [1]; [4] | RPE-Neo or RPE-MYC cells

COc1ccc(CN2C(=O)CC(c3ncc(C)o3)=Cc3ccc(-c4ccn(C)n4)cc32)cc1 [Compound 31, 1-(4-methoxybenzyl)-8-(1-methyl-1H-pyrazol-3-yl)-4-(5-methyloxazol-2-yl)-1,3-dihydro-2H-benzo[b]azepin-2-one]
0.001 to 1 µM: [1]; [2] | [1]; [3] | [1]; [4] | RPE-Neo or RPE-MYC cells

COc1ccc(CN2C(=O)CC(c3ncc(C)o3)=Cc3ccc(-c4cncn4C)cc32)cc1 [Compound 32, 1-(4-methoxybenzyl)-8-(1-methyl-1H-imidazol-5-yl)-4-(5-methyloxazol-2-yl)-1,3-dihydro-2H-benzo[b]azepin-2-one]
0.001 to 1 µM: [1]; [2] | [1]; [3] | [1]; [4] | RPE-Neo or RPE-MYC cells

COc1ccc(CN2C(=O)CC(c3ncc(C)o3)=Cc3ccc(-c4cn[nH]c4)cc32)cc1 [Compound 33, 1-(4-methoxybenzyl)-4-(5-methyloxazol-2-yl)-8-(1H-pyrazol-4-yl)-1,3-dihydro-2H-benzo[b]azepin-2-one]
0.001 to 1 µM: [1]; [2] | [1]; [3] | [1]; [4] | RPE-Neo or RPE-MYC cells

COc1ccc(CN2C(=O)CC(c3ncc(C)o3)=Cc3ccc(-c4cnn(C5CC5)c4)cc32)cc1 [Compound 34, 8-(1-cyclopropyl-1H-pyrazol-4-yl)-1-(4-methoxybenzyl)-4-(5-methyloxazol-2-yl)-1,3-dihydro-2H-benzo[b]azepin-2-one]
0.001 to 1 µM: [1]; [2] | [1]; [3] | [1]; [4] | RPE-Neo or RPE-MYC cells

COc1ccc(CN2C(=O)CC(c3ncc(C)o3)=Cc3ccc(-c4cnn(C5CCNCC5)c4)cc32)cc1 [Compound 35, 1-(4-methoxybenzyl)-4-(5-methyloxazol-2-yl)-8-(1-(piperidin-4-yl)-1H-pyrazol-4-yl)-1,3-dihydro-2H-benzo[b]azepin-2-one]
0.001 to 1 µM: [1]; [2] | [1]; [3] | [1]; [4] | RPE-Neo or RPE-MYC cells

COc1ccc(CN2C(=O)CC(c3ncc(C)o3)=Cc3ccc(-c4cccnc4)cc32)cc1 [Compound 39, 1-(4-methoxybenzyl)-4-(5-methyloxazol-2-yl)-8-(pyridin-3-yl)-1,3-dihydro-2H-benzo[b]azepin-2-one]
0.001 to 1 µM: [1]; [2] | [1]; [3] | [1]; [4] | RPE-Neo or RPE-MYC cells

COc1ccc(CN2C(=O)CC(c3ncc(C)o3)=Cc3ccc(-c4ccncc4)cc32)cc1 [Compound 40, 1-(4-methoxybenzyl)-4-(5-methyloxazol-2-yl)-8-(pyridin-4-yl)-1,3-dihydro-2H-benzo[b]azepin-2-one]
0.001 to 1 µM: [1]; [2] | [1]; [3] | [1]; [4] | RPE-Neo or RPE-MYC cells

COc1ccc(CN2C(=O)CC(c3ncc(C)o3)=Cc3ccc(-c4ccc(F)nc4)cc32)cc1 [Compound 41, 8-(6-fluoropyridin-3-yl)-1-(4-methoxybenzyl)-4-(5-methyloxazol-2-yl)-1,3-dihydro-2H-benzo[b]azepin-2-one]
0.001 to 1 µM: [1]; [2] | [1]; [3] | [1]; [4] | RPE-Neo or RPE-MYC cells

COc1ccc(CN2C(=O)CC(c3ncc(C)o3)=Cc3ccc(-c4ccc(C5CC5)nc4)cc32)cc1 [Compound 43, 8-(6-cyclopropylpyridin-3-yl)-1-(4-methoxybenzyl)-4-(5-methyloxazol-2-yl)-1,3-dihydro-2H-benzo[b]azepin-2-one]
0.001 to 1 µM: [1]; [2] | [1]; [3] | [1]; [4] | RPE-Neo or RPE-MYC cells
